Test results reported in patent US11058725B2, “CA2 compositions and methods for tunable regulation” (Obsidian Therapeutics, Inc., priority 2019, dated 2021).
Like-named read-outs stand apart in the source and are kept apart here.

Columns and labels:
Human primary T cells = experiment: In vitro antigen-independent expansion of T cells transduced with constitutive or ACZ-regulated mbIL15 constructs (cell numbers by flow cytometry); format: cell-based
Experimental: T cells were thawed, cells were washed and counted. T cells were mixed with CD3/CD28 beads (Invitrogen cat#11141D) at 3:1 bead to T cell ratio. 5×10^5 cells/well were added to 24-well plates in 500 μL media. Cells were activated for 24 hrs. Next day, lentivirus was thawed and added to each well at different volumes. After 24 hrs, 500 μL of fresh media was added to wells, and cells were expanded by adding equal volume of fresh media every 2-3 days to keep cell density at 0.5-1×10^6/mL. Cells were analyzed by flow cytometry to confirm expression on day 5 or 6. Cells were expanded for 9-10 days.
After T cell transduction and expansion, CD3/CD28 beads were removed using magnets, cells were washed twice, resuspended in fresh media and counted. Cells were plated in 12-well plates at 1×10^6 in 2 mL. One well of untransduced cells was cultured in the presence of 2 ng/mL IL15 as a control. T cells expressing regulated constructs were cultured in the absence or presence of acetazolamide (ACZ, 30, 10, 3, 1, 0.3 μM). Cell numbers were monitored by flow cytometry every 3-4 days and cells were cultured for 10-12 days. At each time point 100 μL of cells were collected from wells and analyzed by flow cytometry. Cells were split as needed. Cell cultures were maintained in 12-well plates by taking a portion and adding media in a new plate. Volumes for each well were recorded before and after split to calculate final volume in cell number assessment. IL15 or ACZ were replenished at final concentration of the fresh media added during each split.
T cell numbers were determined by flow cytometry. Empty vector (EV) transduced cell numbers decreased to background levels between 3-5 days in the absence of IL15, and cells expanded 11-fold in the presence of 2 ng/mL exogenous IL15 (FIG. 3A). T cells expressing constitutive IL15-292 and IL15-294 expanded between 18 and 21-fold, respectively, in 10 days (FIG. 3A). In T cells expressing IL15-293, maximum expansion was 9.5-11× with 30, 10, 3 μM (FIG. 3B). At the lowest concentration tested (0.3 μM), cells expanded 3.3×. These cells survived longer (0.8×) compared to EV cells without drug treatment […]. In T cells expressing IL15-295, maximum expansion was 8.2-10× with 30, 10, 3 μM and cells expanded 4.9× at the lowest concentration (0.3 μM) tested (FIG. 3C). Without drug treatment, these cells survived (0.9×) longer compared to EV.

T cells [1] = experiment: Acetazolamide dose response of IL15 expression on transduced T cells (flow cytometry); format: cell-based, human; conditions: ACZ 24 hrs starting at 100 μM, diluted 3-fold for 9 points
Experimental: Cells were treated with different concentrations of ACZ (ligand) starting at 100 μM for 24 hrs. Graphs show % IL15+ T Cells (FIG. 4A) and mean fluorescence intensity (MFI) of IL15 (FIG. 4B).
The effect of different concentrations of ACZ on IL15 expression was tested. T cells were treated with ACZ for 24 hrs starting at 100 μM, diluted 3-fold for 9 points. Both % IL15+ T Cells (FIG. 4A) and IL15 Mean Fluorescence Intensity (MFI) (FIG. 4B) analysis indicated similar dose curves for OT-IL15-293 and OT-IL15-295. There was 4-5-fold increase in expression (both % IL15+ T cells and IL15 MFI) between highest and lowest concentrations of ACZ.

HL-60-luc = experiment: HL-60 animal model of acute myeloid leukemia with engineered NK cells; format: in vivo, NSG mice
Experimental: To evaluate the effect of regulated mbIL15 on the anti-tumor activity of NK cells, an HL-60 animal model of acute myeloid leukemia is used. Cord blood NK cells are transduced with BaEV-pseudotyped lentiviral vectors containing either the IL15-292 construct or the IL15-293 construct, as described in Example 9, or with BaEV-pseudotyped lentiviral empty vector (EV), and optionally frozen after transduction. HL-60 cells expressing luciferase (HL-60-luc) are injected intravenously (1×10^6/mouse) into NSG mice and tumor growth is measured once or twice per week by bioluminescence imaging measurement (total flux units in photons per second (p/s) after intraperitoneal injections of D-luciferin). On day 6, animals are randomized into new cages (N=8 for each group) when average tumor size reaches approximately 10^6 total p/s. […]
Group 1 receives NK cells engineered with EV as a negative control, and group 2 receives NK cells transduced with constitutive mbIL5 (construct IL15-292). […] Red blood cells are lysed, stained with fluorochrome-conjugated antibodies against human CD45, CD3 and mouse CD45, and cells are analyzed by flow cytometry. Tumor growth is measured up to approximately 30 days; endpoints include maximal total flux units (10^10) as well as effects on animal health such as hind-limb paralysis and decrease in body weight.

TIL = experiment: Expression of regulated mbIL15 in TIL in response to ACZ (anti-IL15 and IL15Ra-Fc co-staining); format: cell-based, human
Experimental: HEK293T cells were seeded on collagen coated tissue culture plates until 70% confluent. Cells were transfected with pELNS transfer vector carrying constitutive (IL15-292) or regulated (IL15-293) IL15 constructs, as well as packaging plasmids (pRSV.REV, pMDLg/pRRE and OT-BaEVg-002 (SEQ ID NO: 51)) using Lipofectamine 3000 transfection reagent in Opti-MEM media. Media was replaced 6-8 hrs post-transfection with serum-free media. Supernatants containing virus were harvested 24 hr post-transfection, fresh media was added, and supernatants were harvested again at 48 hr post-transfection. Viral supernatants were filtered to remove debris and concentrated by low speed ultracentrifugation. Virus were resuspended, aliquoted and stored at −80 C freezer.
96-well non-coated tissue culture plates were incubated with 35 μg per mL RetroNectin (Takara Bio) in PBS for 2 h at 37° C. or overnight at 4° C. RetroNectin was removed and the plates washed with PBS. BaEV-pseudotyped lentivirus, prepared as described above, and TIL cell media, at a total volume of 50 μL per well, were added to each well and the plates were centrifuged at low speed for 2 hours at 32° C. TIL generated from a head and neck tumor sample prepared as described in Example 5 were engineered after 3 weeks in the pre-REP culture. TIL were activated for 24 hrs in 24-well plates with anti-CD3/CD28 beads at 3:1 bead to T cell ratio. Activated TIL were placed in virus-coated plates and centrifuged at 800 g for 2 hrs and incubated at 37° C. for 4 days in culture media. One well of cells was processed similarly without virus addition and used as negative control (“untransduced”). Cells that were transduced with the regulated mbIL15 construct were treated either with 10 μM ACZ or DMSO for 24 hrs.
mbIL15 expression was determined by flow cytometry using two staining reagents: fluorochrome-conjugated anti-IL15 antibody as well as a recombinant protein comprised of extracellular domain of IL15Ra fused to human IgG1 Fc domain (IL15Ra-Fc). mbIL15+ cell frequency was determined based on co-staining with anti-IL15 and IL15Ra-Fc (identified as the IL15+IL15Ra-Fc+ double positive population).

T cells [2] = experiment: IL15 expression on T cells in vivo on day 25 (IL15Ra-Fc staining, flow cytometry); parameters: species or system NSG mice; conditions: day 25, treated with ACZ 200 mg/kg daily PO
Experimental: Human primary T cells capable of expressing constitutive mbIL15 or ACZ-regulated mbIL15 were prepared in accordance with methods described in Example 1 above. After T cell transduction and expansion, CD3/CD28 beads were removed using magnets, cells were washed twice, resuspended in fresh media and counted. T cells were mixed with expanded NK cells and each animal received 5×10^6 T cells and 2×10^6 expanded NK cells. Cells were infused by intravenous injections into NSG mice. Animals infused with T cells expressing regulated constructs were dosed daily with 200 mg/kg ACZ or vehicle by PO injections. Every 3-4 days, 50 μL blood was analyzed by flow cytometry for presence of T cells and NK cells using antibodies against mouse and human CD45, CD3 and CD56. IL15 expression on day 25 was analyzed using IL15Ra-Fc and fluorochrome conjugated anti-human IgG antibody.
IL15 expression on T cells in vivo on day 25 was analyzed by flow cytometry (FIG. 5C). T cells transduced with constitutive constructs IL15-292 and IL15-294 expressed high levels of IL15 (82% and 61%). IL15 expression was <1.5% in vehicle-treated IL15-293 and IL15-295 as well as EV groups. IL15 expression levels were 11% and 9% on T cells transduced with IL15-293 and IL15-295 in groups treated with ACZ.

[3] = tested on: TIL-matched patient-derived xenografts (hPDX); experiment: Human PDX (hPDX) model with engineered matched TIL; format: in vivo, NSG mice
Excerpt: To evaluate the effect of regulated mbIL15 on the anti-tumor activity of tumor infiltrating lymphocytes (TIL), a human PDX (hPDX) model is used. […] TIL are transduced with BaEV-pseudotyped lentiviral vectors containing either the IL15-292 construct or the IL15-293 construct, as described in Example 6, or with BaEV-pseudotyped lentiviral empty vector (EV), and then optionally frozen. TIL-matched patient-derived xenografts (hPDX) from the tumor sample are established via subcutaneous implant into the right flank of NSG mice. Tumor growth is measured once or twice per week using calipers. On study start, tumors are measured, and mice are randomized and placed in cohorts based on similar mean tumor volume across all groups into new cages (N=8 for each group). […]
Group 1 receives untransduced TIL supplemented with recombinant human IL2 (hIL2) as benchmark control, and group 2 receives TIL transduced with constitutive mbIL15 (IL15-292). […] Blood (50 μL) was withdrawn from submandibular veins on pre-determined days. Red blood cells are lysed, stained with fluorochrome-conjugated antibodies against human CD45, CD3 and mouse CD45, and cells are analyzed by flow cytometry. Tumor growth is measured for up to approximately 90 days; endpoints include maximal caliper measurements as well as effects on animal health, such as tumor necrosis and decrease in body weight.

[4] = tested on: cord blood-derived NK cells; experiment: Regulation of mbIL15 construct with ACZ in cord blood-derived NK cells (IL15Ra-Fc and anti-CD56 FACS); format: cell-based, human; conditions: DMSO overnight, regardless of donor
Experimental: One day prior to NK cell isolation as described in Example 8, feeder cells (K562 cells expressing 4-1BBL and mblL-21) were thawed in complete NK cell media (RPMI with Glutamax (ThermoFisher), 10% heat-inactivated fetal bovine serum (Gibco), 1× Penicillin/Streptomycin, 1 mM Sodium Pyruvate, 1×HEPES, 50 μM 2-Mercaptoethanol). On the day of NK cell isolation, 10×10^6 feeder cells were treated with mitomycin C to inhibit their proliferation and washed to remove excess drug. NK cells were added to the feeder cells at a 1:2 effector to target ratio in NK cell media with 200 U/mL recombinant human IL2 (rhIL2; PeproTech). NK cell cultures were expanded by replenishing cell cultures with NK cell media and rhIL2 every two days, and analyzed by FACS for NK cell expansion.
96-well non-coated tissue culture plates were incubated with 35 μg per mL RetroNectin (Takara Bio) in PBS for 2 h at 37° C. or overnight at 4° C. RetroNectin was removed and the plates washed with PBS. […]
NK cells from three different donors were isolated, expanded and transduced with BaEV-pseudotyped lentivirus containing either the IL15-292 construct or the IL15-293 construct. The titer of the IL15-292 lentivirus was 2.38×10^8 TU/mL while the titer for the IL15-293 lentivirus was 6.51×10^8 TU/mL (as measured by a Jurkat qPCR titer), and 4 μL lentivirus and 46 μL NK cell media were added to each well. […]

Substance | T cell expansion (Human primary T cells; Empty vector (EV) transduced cells, 2 ng/mL exogenous IL15) | EC50 (T cells [1]; read-out: EC50 of ACZ based on % IL15+ T Cells) | EC50 (T cells [1]; read-out: EC50 of ACZ based on MFI of IL15) | T cell expansion at the lowest concentration tested (Human primary T cells; ACZ 0.3 μM) | maximum T cell expansion (Human primary T cells; ACZ 30, 10, 3 μM) | T cell survival/expansion without drug treatment (Human primary T cells; no ACZ) | tumor growth (HL-60-luc; group 3, NK cells transduced with regulated mbIL15, 200 mg/kg ACZ daily PO) | NK cell expansion and persistence compared to groups 1 and 4 (HL-60-luc; group 3, regulated mbIL15, 200 mg/kg ACZ daily PO) | MFI of regulated mbIL15 in TIL (TIL; 10 μM ACZ 24 hrs) | regulated mbIL15 expression in TIL (TIL; 10 μM ACZ 24 hrs) | MFI of regulated mbIL15 in TIL (TIL; DMSO 24 hrs) | regulated mbIL15 expression in TIL (TIL; DMSO 24 hrs) | IL15 expression on T cells (T cells [2]) | tumor growth ([3]; group 3, TIL transduced with regulated mbIL15, 200 mg/kg ACZ daily PO) | tumor growth ([3]; group 4, TIL transduced with regulated mbIL15, vehicle daily) | regulated mbIL15 expression in NK cells [4]
exogenous IL15: exogenous IL15 (2 ng/mL) added to control T cell cultures [reference compound] | 11 fold |  |  |  |  |  |  |  |  |  |  |  |  |  |  | 
IL15-293: ACZ-regulated mbIL15 construct, mbIL15 linked to CA2 (M1del, L156H) DRD (AA SEQ ID NO: 24) |  | 290 nM | 650 nM | 3.3 × | 9.5-11 × | 0.8 × | regress substantially | higher expansion and persistence | high | 42.5% | low | 17.1% | 11% | substantially regress | No tumor growth inhibition | ≤ 10%
